Experimental data from patent publication US9650395B2, “Antibacterial compounds and methods for use” (PTC Therapeutics, Inc., priority 2011, dated 2017).
In brackets after ≈: the same amount, converted by molar mass.

Legend:
[1] = tested on: super sensitive Gram-negative Escherichia coli (E. coli) BAS849; test: Antibacterial activity, microbroth dilution MIC, E. coli BAS849; type: cell-based; settings: Escherichia coli; E. coli BAS849, microbroth dilution; read-out: MIC, BAS849
[2] = tested on: control Gram-negative E. coli 25922 strain; test: Antibacterial activity, microbroth dilution MIC, E. coli 25922; type: cell-based, Escherichia coli; settings: Escherichia coli; E. coli 25922, microbroth dilution; read-out: MIC, 25922
[3] = tested on: Gram-positive Staphylococcus aureus (S. aureus) 29213; test: Antibacterial activity, microbroth dilution MIC, S. aureus 29213; type: cell-based; settings: Staphylococcus aureus; S. aureus 29213, microbroth dilution; read-out: MIC, 29213
[4] = tested on: quinolone resistant E. coli LZ3111; test: Antibacterial activity, MIC, quinolone resistant E. coli LZ3111; type: cell-based, Escherichia coli; settings: Escherichia coli, read-out: MIC, LZ3111
From the text: (§1) The antibacterial activity from a microbroth dilution method may be presented as the minimum inhibitory concentration (MIC in […]). The MIC value is the lowest concentration of a drug which prevents macroscopically visible bacterial growth under test conditions.
Mutations in these regions are known to confer a high level resistance to the quinolone class of antibiotics.

[5] = tested on: E. coli ELZ4000 (MDR clinical isolate); test: Antibacterial activity, MIC, MDR E. coli ELZ4000; type: cell-based, Escherichia coli; settings: Escherichia coli; E. coli ELZ4000, MDR clinical isolate; read-out: MIC ELZ4000
[6] = tested on: E. coli ELZ4251 (MDR clinical isolate); test: Antibacterial activity, MIC, MDR E. coli ELZ4251; type: cell-based, Escherichia coli; settings: Escherichia coli, E. coli ELZ4251, MDR clinical isolate; read-out: MIC ELZ4251
[7] = tested on: Acinetobacter baumannii (A. baumannii) BAA747; test: Antibacterial activity, MIC, A. baumannii BAA747; type: cell-based; settings: Acinetobacter baumannii; A. baumannii BAA747; read-out: MIC BAA747
[8] = tested on: Klebsiella pneumoniae (K. pneumoniae) 35657; test: Antibacterial activity, MIC, K. pneumoniae 35657; type: cell-based; settings: Klebsiella pneumoniae
[9] = tested on: resistant A. baumannii MXX2240 (MDR clinical isolate); test: Antibacterial activity, MIC, resistant A. baumannii MXX2240; type: cell-based, Acinetobacter baumannii; settings: Acinetobacter baumannii, resistant A. baumannii MMX2240, MDR clinical isolate; read-out: MIC MMX2240
[10] = tested on: resistant K. pneumoniae MXX1232 (MDR clinical isolate); test: Antibacterial activity, MIC, resistant K. pneumoniae MXX1232; type: cell-based, Klebsiella pneumoniae; settings: Klebsiella pneumoniae; resistant K. pneumoniae MMX1232, MDR clinical isolate; read-out: MIC MMX1232
[11] = tested on: Pseudomonas aeruginosa (P. aeruginosa) 27853; test: Antibacterial activity, MIC, P. aeruginosa 27853; type: cell-based; settings: Pseudomonas aeruginosa, P. aeruginosa 27853; read-out: MIC 27853
From the text: as §1
Antibacterial activity of test compounds against the Gram-negative bacterium Pseudomonas aeruginosa (P. aeruginosa) 27853 is shown in Table 5.

[12] = tested on: Haemophilus influenzae (H. influenzae) 49247; test: Antibacterial activity, MIC, H. influenzae 49247; type: cell-based; settings: Haemophilus influenzae; H. influenzae 49247; read-out: MIC 49247
Procedure, shortened: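 A microbroth dilution method gave the minimum inhibitory concentration for each compound against H. influenzae 49247, a Gram-negative bacterium. MIC means the smallest concentration of drug at which no macroscopically visible bacterial growth appears under the conditions of the test.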

[13] = tested on: Moraxella catarrhalis (M. catarrhalis) 25238; test: Antibacterial activity, MIC, M. catarrhalis 25238; type: cell-based; settings: Moraxella catarrhalis, M. catarrhalis 25238; read-out: MIC 25238
[14] = tested on: Neisseria meningitidis (N. meningitidis) 13090; test: Antibacterial activity, MIC, N. meningitidis 13090; type: cell-based; settings: Neisseria meningitidis; N. meningitidis 13090; read-out: MIC 13090

Structure (SMILES)	MIC [1] [µg/mL]	MIC [2] [µg/mL]	MIC [3] [µg/mL]	MIC [4] [µg/mL]	MIC [5] [µg/mL]	MIC [6] [µg/mL]	MIC [7] [µg/mL]	MIC [8] [µg/mL]	MIC [9] [µg/mL]	MIC [10] [µg/mL]	MIC [11] [µg/mL]	MIC [12] [µg/mL]	MIC [13] [µg/mL]	MIC [14] [µg/mL]
Cc1c(-c2ccc(N(C)C)cc2)[nH]c(=O)c(C(=O)O)c1O [Cpd 5, 6-[4-(dimethylamino)phenyl]-4-hydroxy-5-methyl-2-oxo-1,2-dihydropyridine-3-carboxylic acid]	< 1	12.5 to 150 (≈ 43.4 to 520 µM)	12.5 to 150 (≈ 43.4 to 520 µM)	1 to 3.5 (≈ 3.47 to 12.1 µM)	3.5 to 12.5 (≈ 12.1 to 43.4 µM)	1 to 3.5 (≈ 3.47 to 12.1 µM)	3.5 to 12.5 (≈ 12.1 to 43.4 µM)	12.5 to 150 (≈ 43.4 to 520 µM)	< 1	12.5 to 150 (≈ 43.4 to 520 µM)	12.5 to 150 (≈ 43.4 to 520 µM)	1 to 3.5 (≈ 3.47 to 12.1 µM)	1 to 3.5 (≈ 3.47 to 12.1 µM)	< 1
CCc1cc(C(=O)O)c(=O)[nH]c1-c1ccc(N(C)C)nc1 [Cpd 86, 6-[6-(dimethylamino)pyridin-3-yl]-5-ethyl-2-oxo-1,2-dihydropyridine-3-carboxylic acid]	1 to 3.5 (≈ 3.48 to 12.2 µM)	12.5 to 150 (≈ 43.5 to 522 µM)	12.5 to 150 (≈ 43.5 to 522 µM)	12.5 to 150 (≈ 43.5 to 522 µM)			12.5 to 150 (≈ 43.5 to 522 µM)	12.5 to 150 (≈ 43.5 to 522 µM)	12.5 to 150 (≈ 43.5 to 522 µM)	12.5 to 150 (≈ 43.5 to 522 µM)	12.5 to 150 (≈ 43.5 to 522 µM)	< 1	1 to 3.5 (≈ 3.48 to 12.2 µM)	< 1
CCc1c(-c2ccc(N(C)C)nc2)[nH]c(=O)c(C(=O)O)c1O [Cpd 87, 6-[6-(dimethylamino)pyridin-3-yl]-5-ethyl-4-hydroxy-2-oxo-1,2-dihydropyridine-3-carboxylic acid]	< 1	12.5 to 150 (≈ 41.2 to 495 µM)	12.5 to 150 (≈ 41.2 to 495 µM)	1 to 3.5 (≈ 3.3 to 11.5 µM)	1 to 3.5 (≈ 3.3 to 11.5 µM)	1 to 3.5 (≈ 3.3 to 11.5 µM)	3.5 to 12.5 (≈ 11.5 to 41.2 µM)	12.5 to 150 (≈ 41.2 to 495 µM)	< 1	12.5 to 150 (≈ 41.2 to 495 µM)	12.5 to 150 (≈ 41.2 to 495 µM)	1 to 3.5 (≈ 3.3 to 11.5 µM)	1 to 3.5 (≈ 3.3 to 11.5 µM)	< 1
CCc1cc(C(=O)O)c(=O)[nH]c1-c1ccc(N(C)C)cc1 [Cpd 88, 6-[4-(dimethylamino)phenyl]-5-ethyl-2-oxo-1,2-dihydropyridine-3-carboxylic acid]	< 1	< 1	3.5 to 12.5 (≈ 12.2 to 43.7 µM)	12.5 to 150 (≈ 43.7 to 524 µM)	12.5 to 150 (≈ 43.7 to 524 µM)	12.5 to 150 (≈ 43.7 to 524 µM)	< 1	< 1	12.5 to 150 (≈ 43.7 to 524 µM)	12.5 to 150 (≈ 43.7 to 524 µM)	3.5 to 12.5 (≈ 12.2 to 43.7 µM)	3.5 to 12.5 (≈ 12.2 to 43.7 µM)	< 1	< 1
CCc1c(-c2ccc(N(C)C)cc2)[nH]c(=O)c(C(=O)O)c1O [Cpd 90, 6-[4-(dimethylamino)phenyl]-5-ethyl-4-hydroxy-2-oxo-1,2-dihydropyridine-3-carboxylic acid]	< 1	1 to 3.5 (≈ 3.31 to 11.6 µM)	3.5 to 12.5 (≈ 11.6 to 41.3 µM)	12.5 to 150 (≈ 41.3 to 496 µM)	12.5 to 150 (≈ 41.3 to 496 µM)	12.5 to 150 (≈ 41.3 to 496 µM)	1 to 3.5 (≈ 3.31 to 11.6 µM)	3.5 to 12.5 (≈ 11.6 to 41.3 µM)	3.5 to 12.5 (≈ 11.6 to 41.3 µM)	12.5 to 150 (≈ 41.3 to 496 µM)	12.5 to 150 (≈ 41.3 to 496 µM)		< 1	< 1
CCc1cc(C(=O)O)c(=O)[nH]c1-c1ccc(N2C[C@@H]3[C@@H](N)[C@@H]3C2)cc1 [Cpd 177, 6-{4-[(1R,5S,6s)-6-amino-3-azabicyclo[3.1.0]hex-3-yl]phenyl}-5-ethyl-2-oxo-1,2-dihydropyridine-3-carboxylic acid]	< 1	< 1	12.5 to 150 (≈ 36.8 to 442 µM)	12.5 to 150 (≈ 36.8 to 442 µM)	12.5 to 150 (≈ 36.8 to 442 µM)	12.5 to 150 (≈ 36.8 to 442 µM)	1 to 3.5 (≈ 2.95 to 10.3 µM)	< 1	12.5 to 150 (≈ 36.8 to 442 µM)	12.5 to 150 (≈ 36.8 to 442 µM)	1 to 3.5 (≈ 2.95 to 10.3 µM)		< 1	< 1
CCc1c(-c2ccc(N3C[C@H]4CCN[C@H]4C3)cc2)[nH]c(=O)c(C(=O)O)c1O.Cl [Cpd 246, 5-ethyl-6-{4-[(3aR,6aR)-hexahydropyrrolo[3,4-b]pyrrol-5(1H)-yl]phenyl}-4-hydroxy-2-oxo-1,2-dihydropyridine-3-carboxylic acid hydrochloride]	< 1	1 to 3.5	12.5 to 150		12.5 to 150	3.5 to 12.5	12.5 to 150	1 to 3.5	12.5 to 150	12.5 to 150	12.5 to 150	1 to 3.5	3.5 to 12.5	1 to 3.5
CCc1c(-c2ccc(N3CCC(CNC)C3)cc2)[nH]c(=O)c(C(=O)O)c1O.Cl (centres unmarked) [Cpd 254, 5-ethyl-4-hydroxy-6-(4-{3-[(methylamino)methyl]pyrrolidin-1-yl}phenyl)-2-oxo-1,2-dihydropyridine-3-carboxylic acid hydrochloride]	< 1	1 to 3.5	12.5 to 150	3.5 to 12.5	12.5 to 150	3.5 to 12.5	3.5 to 12.5	3.5 to 12.5	12.5 to 150	12.5 to 150	3.5 to 12.5	12.5 to 150	12.5 to 150	1 to 3.5
CCc1c(-c2ccc(N3C[C@H]4CC[C@@H](NC)[C@H]4C3)cc2)[nH]c(=O)c(C(=O)O)c1O.Cl [Cpd 256, 5-ethyl-4-hydroxy-6-{4-[(3aR,4R,6aS)-4-(methylamino)hexahydrocyclopenta[c]pyrrol-2(1H)-yl]phenyl}-2-oxo-1,2-dihydropyridine-3-carboxylic acid hydrochloride]	< 1	1 to 3.5	3.5 to 12.5	1 to 3.5	12.5 to 150	3.5 to 12.5	12.5 to 150	1 to 3.5	12.5 to 150	12.5 to 150	12.5 to 150	3.5 to 12.5	1 to 3.5	< 1
CCc1c(-c2ccc(N3CCC(N4CCCC4)C3)cc2)[nH]c(=O)c(C(=O)O)c1O.Cl (centres unmarked) [Cpd 257, 6-[4-(1,3′-bipyrrolidin-1′-yl)phenyl]-5-ethyl-4-hydroxy-2-oxo-1,2-dihydropyridine-3-carboxylic acid hydrochloride]	< 1	< 1	12.5 to 150	3.5 to 12.5	3.5 to 12.5	1 to 3.5	1 to 3.5	1 to 3.5	12.5 to 150	12.5 to 150	12.5 to 150	1 to 3.5	1 to 3.5	< 1
CCc1c(-c2ccc(N3C[C@H]4CCC[C@H](N)[C@H]4C3)cc2)[nH]c(=O)c(C(=O)O)c1O.Cl [Cpd 258, 6-{4-[(3aR,4S,7aS)-4-aminooctahydro-2H-isoindol-2-yl]phenyl}-5-ethyl-4-hydroxy-2-oxo-1,2-dihydropyridine-3-carboxylic acid hydrochloride]	< 1	1 to 3.5	3.5 to 12.5	< 1	12.5 to 150	3.5 to 12.5	12.5 to 150	1 to 3.5	3.5 to 12.5	12.5 to 150	12.5 to 150	3.5 to 12.5	1 to 3.5	< 1
